In patent publication US20170112741A1, “AGENT FOR AMELIORATING SKIN SYMPTOM, HAIR GROWTH AGENT OR SLIMMING AGENT” (GOLDCREST MEDICINE INSTITUTE CO., LTD., priority 2014, published 2017):

Experiments:
Assay type in all cases: in vivo, human
prolactin level in blood = assay: Prolactin level in blood of patient A (prolactin-producing pituitary adenoma) during cabergoline treatment
Protocol: In view of the dramatic improvement of prolactin level, the doctor ordered that the cabergoline administration for the next 1 month be changed to one tablet/week, and oral administration be carried out before sleeping on Thursday. […] As such, the cabergoline administration was maintained at one tablet/week, and the administration period was extended up to 2 months.
Thus, the treatment regimen using cabergoline from August 15 to October 3 was also determined to be oral administration of one tablet (0.25 mg) on Thursday.

moles [1] = assay: Effect of oral administration on 4 moles on left ankle and 4 small moles around them; details: for Color and shape of mole No. 4, left ankle: Jun. 20, 2013: brown circular
Source text: On the part slightly above the left ankle, 4 black moles were observed. From a direction of the little toe of the left foot, there were 3 black circular moles having a similar diameter ranging from about 3.7 mm to about 4 mm, present almost in one line with an interval of 2.4 cm and 2.6 cm. […]
At a position 6 mm above the second mole, there was a red oval mole of 1 mm×1.7 mm. […]

moles [2] = assay: Effect of oral cabergoline on 10 moles of the femoral region of the right leg; details: Jan. 20, 2014, after 7 months oral cabergoline; for Color and shape of mole 1, upper part of side area / Color and shape of mole 2, lower part of side area: Jun. 20, 2013: Black rectangle
Protocol: 10 moles were present within an area having a width of 10 cm and a length of 8 cm extending from the outer side to the front side of the femoral region of the right leg. After 7 months, the state of those 10 moles was observed and the effect of oral administration of cabergoline was investigated.
For the first 4 weeks from […], one tablet (0.25 mg) of carbegoline was administered on Monday and Thursday. The total dose over the 4 weeks was 2 mg. For the following 26 weeks, one tablet of cabergoline was administered on every Thursday. The total dose of cabergoline over the 7-month treatment period was calculated to be 8.5 mg.

[3] = Jan. 17, 2014 (after 210 days), listed as novel skin treatment agent
[4] = Jan. 17, 2014 (after 210 days), size 1.8 × 2.2 wrapped over two grid lines, Jun. 20, 2013: 3.9 mm
[5] = Mar. 20, 2014 (after 272 days), vague border, Jun. 20, 2013: black circular
[6] = listed as novel skin treatment agent
[7] = Jun. 20, 2013: Dark brown circle

C=CCN1C[C@H](C(=O)N(CCCN(C)C)C(=O)NCC)C[C@@H]2c3cccc4[nH]cc(c34)C[C@H]21 [cabergoline]
prolactin level in blood (prolactin level in blood; August 14, after further 4 weeks at one tablet (0.25 mg)/week oral): 47.8 ng/mL
prolactin level in blood (prolactin level in blood; July 17, after 4 weeks at 2 mg/4 weeks oral, level on April 18 was 20888 ng/mL): 101.8 ng/mL
prolactin level in blood (earlier level as restated) (prolactin level in blood; level before the decrease seen on August 14): 102 ng/mL
Color and shape of mole No. 1, left ankle (moles [1]; Dec. 4, 2013 (after 166 days), Jun. 20, 2013: black circular): a red circular mole
Diameter of mole No. 1, left ankle (moles [1]; Dec. 4, 2013 (after 166 days), Jun. 20, 2013: black circular, diameter 3.7 mm): 1.2 mm. The color
Color and shape of mole No. 4, left ankle (moles [1]; Dec. 4, 2013 (after 166 days)): yellow-brown circular mole
Diameter of mole No. 4, left ankle (moles [1]; Dec. 4, 2013 (after 166 days), Jun. 20, 2013: brown circular mole of 2.0 × 1.8 mm): with a diameter of 1.0 mm,
Diameter of the 2 red moles among the small moles above mole No. 3 (moles [1]; Dec. 4, 2013 (after 166 days), Jun. 20, 2013: diameter 1.5 mm): diameter of 0.5 mm.
Color and shape of mole No. 3, left ankle (moles [1]; Dec. 4, 2013 (after 166 days), cell continues: brown rectangular mole, vague border, Jun. 20, 2013: black circular): The mole shrunk to a blackish
Color of mole No. 2, left ankle (moles [1]; Dec. 4, 2013 (after 166 days), oval, vague border, Jun. 20, 2013: black circular): faded to light brown.
State of the 3 small moles above mole No. 3 (moles [1]; Jan. 17, 2014 (after 210 days)): completely disappeared
State of the small mole above mole No. 2 (moles [1]; Jan. 17, 2014 (after 210 days)): completely disappeared
Diameter of mole No. 1, left ankle (moles [1]; Jan. 17, 2014 (after 210 days), Jun. 20, 2013: 3.7 mm): 1.0 mm.
Color and shape of mole No. 1, left ankle (moles [1]; Jan. 17, 2014 (after 210 days), Jun. 20, 2013: black circular): Red circular mole
Color and shape of mole No. 4, left ankle (moles [1]; Jan. 17, 2014 (after 210 days)): Light brown line-shaped
State of the 3 small moles above mole No. 3 (moles [1]; [3]): The upper 3 moles disappeared.
State of the small mole above mole No. 2 (moles [1]; [3]): The upper mole disappeared.
Length of mole No. 2, left ankle (moles [1]; [4]): 2.2 mm with a vague border.
Width of mole No. 2, left ankle (moles [1]; [4]): 1.8 mm
Color and shape of mole No. 2, left ankle (moles [1]; Jan. 17, 2014 (after 210 days), vague border, Jun. 20, 2013: black circular): Light brown oval mole
Diameter of mole No. 1, left ankle (moles [1]; Mar. 20, 2014 (after 272 days), Jun. 20, 2013: 3.7 mm): 1 mm
Diameter of mole No. 1, left ankle (moles [1]; Mar. 20, 2014 (after 272 days), Jun. 20, 2013: 3.7 mm, listed as novel skin treatment agent): diameter of 1.0 mm.
Diameter of mole No. 2, left ankle (moles [1]; Mar. 20, 2014 (after 272 days), Jun. 20, 2013: 3.9 mm): 2 mm
Diameter of mole No. 2, left ankle (moles [1]; Mar. 20, 2014 (after 272 days), Jun. 20, 2013: 3.9 mm, listed as novel skin treatment agent): diameter of 2.0 mm with a vague
Color and shape of mole No. 1, left ankle (moles [1]; Mar. 20, 2014 (after 272 days), Jun. 20, 2013: black circular): red circular shape
Color and shape of mole No. 1, left ankle (moles [1]; Mar. 20, 2014 (after 272 days), Jun. 20, 2013: black circular, listed as novel skin treatment agent): Light red circular
Color and shape of mole No. 4, left ankle (moles [1]; Mar. 20, 2014 (after 272 days), cell continues: shaped mole): only a trace of a faint line shape was observed
Color and shape of mole No. 4, left ankle (moles [1]; Mar. 20, 2014 (after 272 days), cell continues: shaped mole, listed as novel skin treatment agent): Very light brown line-
Color and shape of mole No. 2, left ankle (moles [1]; [5]): pale light brown circular mole
Color and shape of mole No. 3, left ankle (moles [1]; [5]): blackish brown color and an almost rectangular shape
Color and shape of mole No. 3, left ankle (moles [1]; Mar. 20, 2014 (after 272 days), vague border, Jun. 20, 2013: black circular, listed as novel skin treatment agent): Dark brown rectangular mole of
Appearance of all 4 moles on the front area (moles [2]): turned into faint flesh colored, pigmented macules
Diameter of the 2 light brown circular moles sandwiching the red moles of the middle area (moles [2]): 1 mm
Diameter of the remaining 2 small front-area moles (moles [2]): 1 mm
Size change of the front-area moles of 4.5 mm and 3 mm (moles [2]): hardly shrunk
Appearance of mole 7, upper part of front area (moles [2]; Jun. 20, 2013: 3.3 × 3.1 Brown circle-like, cell continues: flesh color): Turned into weak pigmented macules having
Size change of mole 7, upper part of front area (moles [2]; Jun. 20, 2013: 3.3 × 3.1 mm): flesh color with almost no change in size
Color and shape of mole 1, upper part of side area (moles [2]): dark brown rectangular mole
Color and shape of mole 2, lower part of side area (moles [2]): faded light brown oval mole with an unclear border
Color and shape of mole 1, upper part of side area (moles [2]; [6]): Dark brown rectangle
Color and shape of mole 2, lower part of side area (moles [2]; [6]): Faint, light brown rectangle
Color and shape of mole 4, central left part of middle area (moles [2]; Jun. 20, 2013: Brown rectangle): Light red circle-like
Color and shape of mole 3, upper part of middle area (moles [2]; [7]): Faint, light brown circle
Color and shape of mole 6, lower part of middle area (moles [2]; [7]): Dark brown circle
Color and shape of mole 5, central right part of middle area (moles [2]; Jun. 20, 2013: Dark brown oval): Red circle-like
